Assay results published in patent US11091478B2 (Fochon Pharmaceuticals, Ltd., priority 2017, dated 2021).

How the values were obtained:
[1] = tested on: RS4;11 cells; assay: Cell proliferation assay (MTS), RS4;11 cells, 72 h; assay type: cell-based; conditions: Homo sapiens, RS4-11, 72 h
In short: (§1)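 RS4;11 and DOHH2 cells at 5000 cells/well in RPMI-1640 with 10% FBS were treated with compound at 1.5–10000 nM final, nine points, at 37 °C, 5% CO2. Exposure was 72 h for RS4;11 and 120 h for DOHH2. MTS was added for 2 h, absorbance read at 490/650 nm, and IC50 calculated.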

[2] = tested on: DOHH2 cells; assay: Cell proliferation assay (MTS), DOHH2 cells, 120 h; assay type: cell-based; conditions: Homo sapiens, DOHH-2, 120 h
In short: as §1

SMILES	IC50 [1]	IC50 [2]
CC1(C)CCC(CN2CCN(c3ccc(C(=O)NS(=O)(=O)c4cc5c(c([N+](=O)[O-])c4)N[C@@H](CN4C[C@@H]6C[C@H]4CO6)CO5)c(Oc4cnc5[nH]ccc5c4)c3)CC2)=C(c2ccc(Cl)cc2)C1 [Example 2-87, 2-((1H-pyrrolo[2,3-b]pyridin-5-yl)oxy)-N-(((S)-3-(((1S,4S)-2-oxa-5-azabicyclo[2.2.1]heptan-5-yl)methyl)-5-nitro-3,4-dihydro-2H-benzo[b][1,4]oxazin-7-yl)sulfonyl)-4-(4-((4′-chloro-5,5-dimethyl-3,4,5,6-tetrahydro-[1,1′-biphenyl]-2-yl)methyl)piperazin-1-yl) benzamide]	7 nM	26 nM
CC1(C)CCC(CN2CCN(c3ccc(C(=O)NS(=O)(=O)c4cc5c(c([N+](=O)[O-])c4)N[C@@H](CN4C[C@H]6C[C@@H]4CO6)CO5)c(Oc4cnc5[nH]ccc5c4)c3)CC2)=C(c2ccc(Cl)cc2)C1 [Example 2-88, 2-((1H-pyrrolo[2,3-b]pyridin-5-yl)oxy)-N-(((S)-3-(((1R,4R)-2-oxa-5-azabicyclo[2.2.1]heptan-5-yl)methyl)-5-nitro-3,4-dihydro-2H-benzo[b][1,4]oxazin-7-yl)sulfonyl)-4-(4-((4′-chloro-5,5-dimethyl-3,4,5,6-tetrahydro-[1,1′-biphenyl]-2-yl)methyl)piperazin-1-yl) benzamide]	2 nM	14 nM
CC1(C)CCC(CN2CCN(c3ccc(C(=O)NS(=O)(=O)c4cc5c(c([N+](=O)[O-])c4)N[C@@H](CN4CCCCC4)CO5)c(Oc4cnc5[nH]ccc5c4)c3)CC2)=C(c2ccc(Cl)cc2)C1 [Example 2-89, (S)-2-((1H-pyrrolo[2,3-b]pyridin-5-yl)oxy)-4-(4-((4′-chloro-5,5-dimethyl-3,4,5,6-tetra-hydro-[1,1′-biphenyl]-2-yl)methyl)piperazin-1-yl)-N-((5-nitro-3-(piperidin-1-ylmethyl)-3,4-dihydro-2H-benzo[b][1,4]oxazin-7-yl)sulfonyl)benzamide]	50 nM	55 nM
CC1(C)CCC(CN2CCN(c3ccc(C(=O)NS(=O)(=O)c4cc5c(c([N+](=O)[O-])c4)N[C@H](CN4CCN(S(C)(=O)=O)CC4)CO5)c(Oc4cnc5[nH]ccc5c4)c3)CC2)=C(c2ccc(Cl)cc2)C1 [Example 2-90, (R)-2-((1H-pyrrolo[2,3-b]pyridin-5-yl)oxy)-4-(4-((4′-chloro-5,5-dimethyl-3,4,5,6-tetra-hydro-[1,1′-biphenyl]-2-yl)methyl)piperazin-1-yl)-N-((3-((4-(methylsulfonyl)piperazin-1-yl)methyl)-5-nitro-3,4-dihdyro-2H-ben-zo[b][1,4]oxazin-7-yl)sulfonyl)benzamide]	8 nM	22 nM
CC(=O)N1CCN(C[C@@H]2COc3cc(S(=O)(=O)NC(=O)c4ccc(N5CCN(CC6=C(c7ccc(Cl)cc7)CC(C)(C)CC6)CC5)cc4Oc4cnc5[nH]ccc5c4)cc([N+](=O)[O-])c3N2)CC1 [Example 2-91, (R)-2-((1H-pyrrolo[2,3-b]pyridin-5-yl)oxy)-N-((3-((4-acetylpiperazin-1-yl)methyl)-5-nitro-3,4-dihydro-2H-benzo[b][1,4]oxazin-7-yl)sulfonyl)-4-(4-((4′-chloro-5,5-dimethyl-3,4,5,6-tetrahydro-[1,1′-biphenyl]-2-yl)meth-yl)piperazin-1-yl)benzamide]	5 nM	49 nM
CCC(=O)N1CCN(C[C@@H]2COc3cc(S(=O)(=O)NC(=O)c4ccc(N5CCN(CC6=C(c7ccc(Cl)cc7)CC(C)(C)CC6)CC5)cc4Oc4cnc5[nH]ccc5c4)cc([N+](=O)[O-])c3N2)CC1 [Example 2-92, (R)-2-((1H-pyrrolo[2,3-b]pyridin-5-yl)oxy)-4-(4-((4′-chloro-5,5-dimethyl-3,4,5,6-tetra-hydro-[1,1′-biphenyl]-2-yl)methyl)piperazin-1-yl)-N-((5-nitro-3-((4-propionylpiperazin-1-yl)methyl)-3,4-dihydro-2H-benzo[b] [1,4]oxazin-7-yl)sulfonyl)benzamide]	5 nM	79 nM
COC(=O)N1CCN(C[C@@H]2COc3cc(S(=O)(=O)NC(=O)c4ccc(N5CCN(CC6=C(c7ccc(Cl)cc7)CC(C)(C)CC6)CC5)cc4Oc4cnc5[nH]ccc5c4)cc([N+](=O)[O-])c3N2)CC1 [Example 2-93, methyl (R)-4-((7-(N-(2-((1H-pyrrolo[2,3-b]pyridin-5-yl)oxy)-4-(4-((4′-chloro-5,5-dimethyl-3,4,5,6-tetrahydro-[1,1′-biphenyl]-2-yl)methyl)piperazin-1-yl)benzoyl)sulfamoyl)-5-nitro-3,4-dihydro-2H-benzo[b][1,4]oxazin-3-yl)methyl)piperazine-1-carboxylate]	40 nM	16 nM
CC1(C)CCC(CN2CCN(c3ccc(C(=O)NS(=O)(=O)c4cc5c(c([N+](=O)[O-])c4)N[C@H](CN4CCN(C(=O)C6CC6)CC4)CO5)c(Oc4cnc5[nH]ccc5c4)c3)CC2)=C(c2ccc(Cl)cc2)C1 [Example 2-94, (R)-2-((1H-pyrrolo[2,3-b]pyridin-5-yl)oxy)-4-(4-((4′-chloro-5,5-dimethyl-3,4,5,6-tetra-hydro-[1,1′-biphenyl]-2-yl)methyl)piperazin-1-yl)-N-((3-((4-(cyclopropanecarbonyl)piperazin-1-yl)methyl)-5-nitro-3,4-dihydro-2H-benzo[b][1,4]oxazin-7-yl)sulfonyl)benza-mide]	20 nM	1 nM
CC1(C)CCC(CN2CCN(c3ccc(C(=O)NS(=O)(=O)c4cc5c(c([N+](=O)[O-])c4)N[C@@H](CN4CCN(S(C)(=O)=O)CC4)CO5)c(Oc4cnc5[nH]ccc5c4)c3)CC2)=C(c2ccc(Cl)cc2)C1 [Example 2-95, (S)-2-((1H-pyrrolo[2,3-b]pyridin-5-yl)oxy)-4-(4-((4′-chloro-5,5-dimethyl-3,4,5,6-tetra-hydro-[1,1′-biphenyl]-2-yl)methyl)piperazin-1-yl)-N-((3-((4-(methylsulfonyl)piperazin-1-yl)methyl)-5-nitro-3,4-dihydro-2H-ben-zo[b][1,4]oxazin-7-yl)sulfonyl)benzamide]	45 nM	19 nM
CC(=O)N1CCN(C[C@H]2COc3cc(S(=O)(=O)NC(=O)c4ccc(N5CCN(CC6=C(c7ccc(Cl)cc7)CC(C)(C)CC6)CC5)cc4Oc4cnc5[nH]ccc5c4)cc([N+](=O)[O-])c3N2)CC1 [Example 2-96, (S)-2-((1H-pyrrolo[2,3-b]pyridin-5-yl)oxy)-N-((3-((4-acetylpiperazin-1-yl)methyl)-5-nitro-3,4-dihydro-2H-benzo[b][1,4]oxazin-7-yl)sulfonyl)-4-(4-((4′-chloro-5,5-dimethyl-3,4,5,6-tetrahydro-[1,1′-biphenyl]-2-yl)meth-yl)piperazin-1-yl)benzamide]	72 nM	85 nM
CCC(=O)N1CCN(C[C@H]2COc3cc(S(=O)(=O)NC(=O)c4ccc(N5CCN(CC6=C(c7ccc(Cl)cc7)CC(C)(C)CC6)CC5)cc4Oc4cnc5[nH]ccc5c4)cc([N+](=O)[O-])c3N2)CC1 [Example 2-97, (S)-2-((1H-pyrrolo[2,3-b]pyridin-5-yl)oxy)-4-(4-((4′-chloro-5,5-dimethyl-3,4,5,6-tetra-hydro-[1,1′-biphenyl]-2-yl)methyl)piperazin-1-yl)-N-((5-nitro-3-((4-propionylpiperazin-1-yl)methyl)-3,4-dihydro-2H-benzo[b] [1,4]oxazin-7-yl)sulfonyl)benzamide]	23 nM	23 nM
COC(=O)N1CCN(C[C@H]2COc3cc(S(=O)(=O)NC(=O)c4ccc(N5CCN(CC6=C(c7ccc(Cl)cc7)CC(C)(C)CC6)CC5)cc4Oc4cnc5[nH]ccc5c4)cc([N+](=O)[O-])c3N2)CC1 [Example 2-98, methyl (S)-4-((7-(N-(2-((1H-pyrrolo[2,3-b]pyridin-5-y)oxy)-4-(4-((4′-chloro-5,5-dimethyl-3,4,5,6-tetrahydro[1,1′-biphenyl]-2-yl)methyl)piperazin-1-yl)benzoyl)sulfamoyl)-5-nitro-3,4-dihydro-2H-benzo[b][1,4]oxazin-3-yl)methyl)piperazine-1-carboxylate]	17 nM	38 nM
CC1(C)CCC(CN2CCN(c3ccc(C(=O)NS(=O)(=O)c4cc5c(c([N+](=O)[O-])c4)N[C@@H](CN4CCN(C(=O)C6CC6)CC4)CO5)c(Oc4cnc5[nH]ccc5c4)c3)CC2)=C(c2ccc(Cl)cc2)C1 [Example 2-99, (S)-2-((1H-pyrrolo[2,3-b]pyridin-5-yl)oxy)-4-(4-((4′-chloro-5,5-dimethyl-3,4,5,6-tetra-hydro-[1,1′-biphenyl]-2-yl)methyl)piperazin-1-yl)-N-((3-((4-(cyclopropanecarbonyl)piperazin-1-yl)methyl)-5-nitro-3,4-dihydro-2H-benzo[b][1,4]oxazin-7-yl)sulfonyl)benza-mide]	8 nM	20 nM
C[C@@H]1CNc2c(cc(S(=O)(=O)NC(=O)c3ccc(N4CCN(CC5=C(c6ccc(Cl)cc6)CC(C)(C)CC5)CC4)cc3Oc3cnc4[nH]ccc4c3)cc2[N+](=O)[O-])O1 [Example 2-100, (R)-2-((1H-pyrrolo[2,3-b]pyridin-5-yl)oxy)-4-(4-((4′-chloro-5,5-dimethyl-3,4,5,6-tetra-hydro[1,1′-biphenyl]-2-yl)methyl)piperazin-1-yl)-N-((2-methyl-5-nitro-3,4-dihydro-2H-benzo[b][1,4]oxazin-7-yl)sulfonyl)benza-mide]	22 nM	31 nM
CN(C)C(=O)[C@H]1COc2cc(S(=O)(=O)NC(=O)c3ccc(N4CCN(CC5=C(c6ccc(Cl)cc6)CC(C)(C)CC5)CC4)cc3Oc3cnc4[nH]ccc4c3)cc([N+](=O)[O-])c2N1 [Example 2-102, (R)-7-(N-(2-((1H-pyrrolo[2,3-b]pyridin-5-yl)oxy)-4-(4-((4′-chloro-5,5-dimethyl-3,4,5,6-tetrahydro-[1,1′-biphenyl]-2-yl)methyl)pi-perazin-1-yl)benzoyl)sulfamoyl)-N,N-dimethyl-5-nitro-3,4-dihydro-2H-benzo[b] [1,4]oxazine-3-carboxamide]	10 nM	95 nM
